Measured values reported in ChEMBL document CHEMBL5500363, “Discovery of novel ocotillol derivatives modulating glucocorticoid receptor/NF-κB signaling for the treatment of sepsis” (Eur J Med Chem, 2024).

Test system: not listed separately
Test: Cytotoxicity against mouse RAW264.7 cells assessed as cell viability at 40 uM incubated for 24 hrs by MTT assay relative to control
Type: toxicity, cell-based
Conditions: read-out: Activity

Row | SMILES | viability at 24 h, 40 µM
1 | CC(C)(C)OC(=O)CC(=O)Nc1nc2c(s1)C[C@]1(C)[C@H]3C[C@@H](O)[C@@H]4C([C@]5(C)CC[C@H](C(C)(C)O)O5)CC[C@@]4(C)[C@]3(C)CC[C@H]1C2(C)C (stereo partly drawn) | > 90%
2 | CC(C)(O)[C@@H]1CC[C@@](C)(C2CC[C@]3(C)[C@@H]2[C@H](O)C[C@@H]2[C@@]4(C)CC[C@H](OC(=O)CCC(=O)Nc5nnc(Cl)s5)C(C)(C)[C@@H]4CC[C@]23C)O1 (stereo partly drawn) | > 90%
3 | CC(C)(C)OC(=O)CCC(=O)Nc1nc2c(s1)C[C@]1(C)[C@H]3C[C@@H](O)[C@@H]4C([C@]5(C)CC[C@H](C(C)(C)O)O5)CC[C@@]4(C)[C@]3(C)CC[C@H]1C2(C)C (stereo partly drawn) | > 90%
4 | CC(C)(C)OC(=O)CC(=O)Nc1nc2c(s1)C[C@]1(C)[C@H]3C[C@@H](O)[C@@H]4C([C@]5(C)CC[C@@H](C(C)(C)O)O5)CC[C@@]4(C)[C@]3(C)CC[C@H]1C2(C)C (stereo partly drawn) | > 90%
5 | CC(C)(O)[C@@H]1CC[C@@](C)(C2CC[C@]3(C)[C@@H]2[C@H](O)C[C@@H]2[C@@]4(C)Cc5sc(NC(=O)C(F)(F)F)nc5C(C)(C)[C@@H]4CC[C@]23C)O1 (stereo partly drawn) | > 90%
6 | CC(C)(C)OC(=O)NCCCCCC(=O)Nc1nc2c(s1)C[C@]1(C)[C@H]3C[C@@H](O)[C@@H]4C([C@]5(C)CC[C@@H](C(C)(C)O)O5)CC[C@@]4(C)[C@]3(C)CC[C@H]1C2(C)C (stereo partly drawn) | > 90%

Test system: RAW264.7
Test: Inhibition of LPS-induced NO production in mouse RAW264.7 cells at 5 uM pretreated for 2 hrs followed by LPS stimulation for 24 hrs by Griess assay relative to control
Type: functional
Conditions: time 26 hrs

Row | SMILES | inhibition at 5 µM
7 | CC(C)(C)OC(=O)CC(=O)Nc1nc2c(s1)C[C@]1(C)[C@H]3C[C@@H](O)[C@@H]4C([C@]5(C)CC[C@H](C(C)(C)O)O5)CC[C@@]4(C)[C@]3(C)CC[C@H]1C2(C)C (stereo partly drawn) | 14.3%
8 | CC(C)(O)[C@H]1CC[C@@](C)(C2CC[C@]3(C)[C@@H]2[C@H](O)C[C@@H]2[C@@]4(C)CC[C@H](O)C(C)(C)[C@@H]4CC[C@]23C)O1 (stereo partly drawn) | 13%
9 | CC(C)(O)[C@@H]1CC[C@@](C)(C2CC[C@]3(C)[C@@H]2[C@H](O)C[C@@H]2[C@@]4(C)CC[C@H](OC(=O)CCC(=O)Nc5nnc(Cl)s5)C(C)(C)[C@@H]4CC[C@]23C)O1 (stereo partly drawn) | 32.5%
10 | CC(C)(C)OC(=O)CCC(=O)Nc1nc2c(s1)C[C@]1(C)[C@H]3C[C@@H](O)[C@@H]4C([C@]5(C)CC[C@H](C(C)(C)O)O5)CC[C@@]4(C)[C@]3(C)CC[C@H]1C2(C)C (stereo partly drawn) | 11.1%
11 | CC(C)(O)[C@@H]1CC[C@@](C)(C2CC[C@]3(C)[C@@H]2[C@H](O)C[C@@H]2[C@@]4(C)CC[C@H](O)C(C)(C)[C@@H]4CC[C@]23C)O1 (stereo partly drawn) | 5.58%
12 | CC(C)(C)OC(=O)CC(=O)Nc1nc2c(s1)C[C@]1(C)[C@H]3C[C@@H](O)[C@@H]4C([C@]5(C)CC[C@@H](C(C)(C)O)O5)CC[C@@]4(C)[C@]3(C)CC[C@H]1C2(C)C (stereo partly drawn) | 24.5%
13 | CC(C)(O)[C@@H]1CC[C@@](C)(C2CC[C@]3(C)[C@@H]2[C@H](O)C[C@@H]2[C@@]4(C)Cc5sc(NC(=O)C(F)(F)F)nc5C(C)(C)[C@@H]4CC[C@]23C)O1 (stereo partly drawn) | 14.2%
14 | CC(C)(C)OC(=O)NCCCCCC(=O)Nc1nc2c(s1)C[C@]1(C)[C@H]3C[C@@H](O)[C@@H]4C([C@]5(C)CC[C@@H](C(C)(C)O)O5)CC[C@@]4(C)[C@]3(C)CC[C@H]1C2(C)C (stereo partly drawn) | 27.4%

Test system: RAW264.7
Test: Inhibition of LPS-induced NO production in mouse RAW264.7 cells at 10 uM pretreated for 2 hrs followed by LPS stimulation for 24 hrs by Griess assay relative to control
Type: functional
Conditions: time 26 hrs

Row | SMILES | inhibition at 10 µM
15 | CC(C)(C)OC(=O)CC(=O)Nc1nc2c(s1)C[C@]1(C)[C@H]3C[C@@H](O)[C@@H]4C([C@]5(C)CC[C@H](C(C)(C)O)O5)CC[C@@]4(C)[C@]3(C)CC[C@H]1C2(C)C (stereo partly drawn) | 29.8%
16 | CC(C)(O)[C@H]1CC[C@@](C)(C2CC[C@]3(C)[C@@H]2[C@H](O)C[C@@H]2[C@@]4(C)CC[C@H](O)C(C)(C)[C@@H]4CC[C@]23C)O1 (stereo partly drawn) | 19.7%
17 | CC(C)(O)[C@@H]1CC[C@@](C)(C2CC[C@]3(C)[C@@H]2[C@H](O)C[C@@H]2[C@@]4(C)CC[C@H](OC(=O)CCC(=O)Nc5nnc(Cl)s5)C(C)(C)[C@@H]4CC[C@]23C)O1 (stereo partly drawn) | 43.4%
18 | CC(C)(C)OC(=O)CCC(=O)Nc1nc2c(s1)C[C@]1(C)[C@H]3C[C@@H](O)[C@@H]4C([C@]5(C)CC[C@H](C(C)(C)O)O5)CC[C@@]4(C)[C@]3(C)CC[C@H]1C2(C)C (stereo partly drawn) | 22.5%
19 | CC(C)(O)[C@@H]1CC[C@@](C)(C2CC[C@]3(C)[C@@H]2[C@H](O)C[C@@H]2[C@@]4(C)CC[C@H](O)C(C)(C)[C@@H]4CC[C@]23C)O1 (stereo partly drawn) | 8.85%
20 | CC(C)(C)OC(=O)CC(=O)Nc1nc2c(s1)C[C@]1(C)[C@H]3C[C@@H](O)[C@@H]4C([C@]5(C)CC[C@@H](C(C)(C)O)O5)CC[C@@]4(C)[C@]3(C)CC[C@H]1C2(C)C (stereo partly drawn) | 40.7%
21 | CC(C)(O)[C@@H]1CC[C@@](C)(C2CC[C@]3(C)[C@@H]2[C@H](O)C[C@@H]2[C@@]4(C)Cc5sc(NC(=O)C(F)(F)F)nc5C(C)(C)[C@@H]4CC[C@]23C)O1 (stereo partly drawn) | 20.6%
22 | CC(C)(C)OC(=O)NCCCCCC(=O)Nc1nc2c(s1)C[C@]1(C)[C@H]3C[C@@H](O)[C@@H]4C([C@]5(C)CC[C@@H](C(C)(C)O)O5)CC[C@@]4(C)[C@]3(C)CC[C@H]1C2(C)C (stereo partly drawn) | 43.6%

Test system: RAW264.7
Test: Inhibition of LPS-induced NO production in mouse RAW264.7 cells at 20 uM pretreated for 2 hrs followed by LPS stimulation for 24 hrs by Griess assay relative to control
Type: functional
Conditions: time 26 hrs

Row | SMILES | inhibition at 20 µM
23 | CC(C)(C)OC(=O)CC(=O)Nc1nc2c(s1)C[C@]1(C)[C@H]3C[C@@H](O)[C@@H]4C([C@]5(C)CC[C@H](C(C)(C)O)O5)CC[C@@]4(C)[C@]3(C)CC[C@H]1C2(C)C (stereo partly drawn) | 50%
24 | CC(C)(O)[C@H]1CC[C@@](C)(C2CC[C@]3(C)[C@@H]2[C@H](O)C[C@@H]2[C@@]4(C)CC[C@H](O)C(C)(C)[C@@H]4CC[C@]23C)O1 (stereo partly drawn) | 30.3%
25 | CC(C)(O)[C@@H]1CC[C@@](C)(C2CC[C@]3(C)[C@@H]2[C@H](O)C[C@@H]2[C@@]4(C)CC[C@H](OC(=O)CCC(=O)Nc5nnc(Cl)s5)C(C)(C)[C@@H]4CC[C@]23C)O1 (stereo partly drawn) | 45.7%
26 | CC(C)(C)OC(=O)CCC(=O)Nc1nc2c(s1)C[C@]1(C)[C@H]3C[C@@H](O)[C@@H]4C([C@]5(C)CC[C@H](C(C)(C)O)O5)CC[C@@]4(C)[C@]3(C)CC[C@H]1C2(C)C (stereo partly drawn) | 39.1%
27 | CC(C)(O)[C@@H]1CC[C@@](C)(C2CC[C@]3(C)[C@@H]2[C@H](O)C[C@@H]2[C@@]4(C)CC[C@H](O)C(C)(C)[C@@H]4CC[C@]23C)O1 (stereo partly drawn) | 22.3%
28 | CC(C)(C)OC(=O)CC(=O)Nc1nc2c(s1)C[C@]1(C)[C@H]3C[C@@H](O)[C@@H]4C([C@]5(C)CC[C@@H](C(C)(C)O)O5)CC[C@@]4(C)[C@]3(C)CC[C@H]1C2(C)C (stereo partly drawn) | 67.2%
29 | CC(C)(O)[C@@H]1CC[C@@](C)(C2CC[C@]3(C)[C@@H]2[C@H](O)C[C@@H]2[C@@]4(C)Cc5sc(NC(=O)C(F)(F)F)nc5C(C)(C)[C@@H]4CC[C@]23C)O1 (stereo partly drawn) | 30.9%
30 | CC(C)(C)OC(=O)NCCCCCC(=O)Nc1nc2c(s1)C[C@]1(C)[C@H]3C[C@@H](O)[C@@H]4C([C@]5(C)CC[C@@H](C(C)(C)O)O5)CC[C@@]4(C)[C@]3(C)CC[C@H]1C2(C)C (stereo partly drawn) | 48.5%

Test system: RAW264.7
Test: Inhibition of LPS-induced NO production in mouse RAW264.7 cells pretreated for 2 hrs followed by LPS stimulation for 24 hrs by Griess assay
Type: functional, cell-based
Conditions: not given

Row | SMILES | IC50
31 | CC(C)(O)[C@H]1CC[C@@](C)(C2CC[C@]3(C)[C@@H]2[C@H](O)C[C@@H]2[C@@]4(C)CC[C@H](O)C(C)(C)[C@@H]4CC[C@]23C)O1 (stereo partly drawn) | 20.8 µM
32 | CC(C)(O)[C@@H]1CC[C@@](C)(C2CC[C@]3(C)[C@@H]2[C@H](O)C[C@@H]2[C@@]4(C)CC[C@H](OC(=O)CCC(=O)Nc5nnc(Cl)s5)C(C)(C)[C@@H]4CC[C@]23C)O1 (stereo partly drawn) | 29.8 µM
33 | CC(C)(O)[C@@H]1CC[C@@](C)(C2CC[C@]3(C)[C@@H]2[C@H](O)C[C@@H]2[C@@]4(C)CC[C@H](O)C(C)(C)[C@@H]4CC[C@]23C)O1 (stereo partly drawn) | 30.4 µM
34 | CC(C)(O)[C@@H]1CC[C@@](C)(C2CC[C@]3(C)[C@@H]2[C@H](O)C[C@@H]2[C@@]4(C)Cc5sc(NC(=O)C(F)(F)F)nc5C(C)(C)[C@@H]4CC[C@]23C)O1 (stereo partly drawn) | 25.7 µM

The next lines start with the values.

Row | IC50 | SMILES
35 | 17.5 µM | CC(C)(C)OC(=O)CC(=O)Nc1nc2c(s1)C[C@]1(C)[C@H]3C[C@@H](O)[C@@H]4C([C@]5(C)CC[C@H](C(C)(C)O)O5)CC[C@@]4(C)[C@]3(C)CC[C@H]1C2(C)C (stereo partly drawn)
36 | 16.5 µM | CC(C)(C)OC(=O)CCC(=O)Nc1nc2c(s1)C[C@]1(C)[C@H]3C[C@@H](O)[C@@H]4C([C@]5(C)CC[C@H](C(C)(C)O)O5)CC[C@@]4(C)[C@]3(C)CC[C@H]1C2(C)C (stereo partly drawn)
37 | 9.17 µM | CC(C)(C)OC(=O)CC(=O)Nc1nc2c(s1)C[C@]1(C)[C@H]3C[C@@H](O)[C@@H]4C([C@]5(C)CC[C@@H](C(C)(C)O)O5)CC[C@@]4(C)[C@]3(C)CC[C@H]1C2(C)C (stereo partly drawn)
38 | 24.5 µM | CC(C)(C)OC(=O)NCCCCCC(=O)Nc1nc2c(s1)C[C@]1(C)[C@H]3C[C@@H](O)[C@@H]4C([C@]5(C)CC[C@@H](C(C)(C)O)O5)CC[C@@]4(C)[C@]3(C)CC[C@H]1C2(C)C (stereo partly drawn)
